The values below come from patent publication US7767676B2, “Dihydro-1,3,5-triazine amine derivatives and their therapeutic uses” (Merck Sante, priority 2000, dated 2010).

Counter-ions that a name gives are not always drawn. Like-named read-outs stand apart in the source and are kept apart here. Bounds are passed on as bounds.

The subject of data set [1] is non-insulin-dependent diabetes induced in rats by Streptozotocin. Description: Antidiabetic activity in the Nostz rat (non-insulin-dependent diabetes induced by neonatal streptozotocin), glycaemia after oral treatment. The note with it: diabetic rats, blood 2 h after last administration; for change in vivo at 20 mg/kg: 20 mg/kg/D oral; for change in vivo at 200 mg/kg: 200 mg/kg/D oral. It counts as in vivo. As to the method:
Study of the Antidiabetic Activity in the Nostz Rat
The antidiabetic activity of the compounds of formula (I) administered orally was determined on an experimental model of non-insulin-dependent diabetes induced in rats by Streptozotocin.
The non-insulin-dependent diabetes model is obtained in rats by neonatal injection (on the day of birth) of streptozotocin.
The diabetic rats used were 8 weeks old. The animals were kept, from the day of their birth to the day of the experiment, in an animal house at a controlled temperature of 21 to 22° C. and subjected to a fixed cycle of light (from 7 am to 7 pm) and darkness (from 7 pm to 7 am). Their diet consisted of a maintenance diet, water and food were provided “ab libitum”, with the exception of the 2 hours of fasting preceding the tests when the food is withdrawn (postabsorptive state).
The rats were treated by the oral route for one (D1) or four (D4) days with the product to be tested. Two hours after the last administration of the product and 30 minutes after anaesthetizing the animals with sodium pentobarbital (Nembutal a), 300 μl of blood sample are collected from the end of the tail.
By way of example, results obtained are assembled in Table III.

The mark [2] stands for this setting: 24 h, 1 day of treatment, read-out: percentage variation of glycaemia at D1 relative to D0.
Where [3] appears, read: 96 h, 4 days of treatment, read-out: percentage variation of glycaemia at D4 relative to D0.

As for `CN(C)C1=NC(C)(CCCO)N=C(N)N1` (stereo not drawn) (as salt: HCl) [Compound 7], the melting point (usually the temperature, or range, at which the solid turns liquid) was in the range of 150 to 152 °C.
On the same count and under the same terms, then `CC1N=C(N(C)C)NC(N2CCCC2)=N1` (stereo not drawn) (as salt: salt) [Compound 21], with above 140 °C; and `CN(C)C1=NC(C2CCCCC2)N=C(N)N1` (stereo not drawn) (as salt: toluenesulphonate) [Compound 34], with 201 to 203 °C.
Turning to `CN(C)C1=NC(C)(CCCO)N=C(N)N1` (stereo not drawn) [Compound 7], in data set [1] (setting [2]), the change in vivo at 20 mg/kg is -8% and the change in vivo at 200 mg/kg was -10%. In addition, in data set [1] (setting [3]), the change in vivo at 20 mg/kg is -11% and the change in vivo at 200 mg/kg is -16%.
With `CN(C)C1=NC(C(C)(C)C)N=C(N)N1` (stereo not drawn) [Compound 42], the change in vivo at 20 mg/kg in data set [1] (setting [2]) was -5%; in data set [1] (setting [3]), -4%. The values for the change in vivo at 200 mg/kg in data set [1] (setting [2]) and in data set [1] (setting [3]) were -26% and -17%, respectively.
In the case of `CC1N=C(N(C)C)NC(N(C)C)=N1` [Compound 2, 2,4-bisdimethylamino-3,6-dihydro-6-methyl-1,3,5-triazine hydrochloride], in data set [1] (setting [2]), the change in vivo at 20 mg/kg was -11% and the change in vivo at 200 mg/kg was -12%. Also, in data set [1] (setting [3]), the change in vivo at 20 mg/kg was -10% and the change in vivo at 200 mg/kg is -12%.
Compound `CC(CCC(=O)O)[C@H]1CCC2C3CCC4CC5(CC[C@]4(C)C3CC[C@@]21C)N=C(N)NC(N(C)C)=N5` (stereo partly drawn) (as salt: HCl) came in with a melting point above 260 °C.
`CN(C)C1=NC(C)(C)N=C(N2CCCC2)N1` (as salt: HCl) [Compound 17]: the melting point was above 260 °C.
On to `CN(C)C1=NC(C(C)(C)C)N=C(N)N1` (stereo not drawn) (as salt: HCl) [Compound 42], for which the melting point was above 260 °C.
Still for that read-out and setting: with `CN(C)C1=NC(c2ccco2)N=C(N)N1` (stereo not drawn) (as salt: HCl) [Compound 40] the figure was 225 to 227 °C; with `CC1N=C(N(C)C)NC(N(C)C)=N1` (as salt: HCl) [Compound 2, 2,4-bisdimethylamino-3,6-dihydro-6-methyl-1,3,5-triazine hydrochloride], 200 to 202 °C.
Regarding `CN1CCC2(CC1)N=C(N)NC(N(C)C)=N2` [Compound 39], in data set [1] (setting [2]), the change in vivo at 20 mg/kg is -6% and the change in vivo at 200 mg/kg is -4%. Besides, in data set [1] (setting [3]), the change in vivo at 20 mg/kg was -6% and the change in vivo at 200 mg/kg was -7%.
`CN(C)C1=NC2(CCCCC2)N=C(N)N1` (as salt: HCl) [Compound 4] returned a melting point of 243 to 245 °C.
Same read-out and setting: then `CC(C)NC1=NC(C)(C)N=C(N(C)C)N1` (as salt: HCl) [Compound 9], with 149 to 151 °C.
For `C=CCNC1=NC(C)N=C(N(C)C)N1` (stereo not drawn) [Compound 26], the change in vivo at 20 mg/kg in data set [1] (setting [2]) was -6%; in data set [1] (setting [3]), -11%. The change in vivo at 200 mg/kg is -14% in data set [1] (setting [2]) and -9% in data set [1] (setting [3]).
For the compound `CC(CCC(=O)O)[C@H]1CCC2C3C(C[C@H](O)[C@@]21C)[C@@]1(C)CCC2(CC1C[C@H]3O)N=C(N)NC(N(C)C)=N2` (stereo partly drawn) [Compound 25], in data set [1] (setting [2]), the change in vivo at 20 mg/kg is -4% and the change in vivo at 200 mg/kg was -7%. In data set [1] (setting [3]), the change in vivo at 20 mg/kg is -11% and the change in vivo at 200 mg/kg is -6%.
Turning to `CN(C)C1=NC2(CCCC2)N=C(N)N1` [Compound 31], the change in vivo at 20 mg/kg is -5% in data set [1] (setting [2]) and -11% in data set [1] (setting [3]). Further, the change in vivo at 200 mg/kg in data set [1] (setting [2]) is -3%; in data set [1] (setting [3]) it was -15%.
The matching figures for `CN(C)C1=NC(C)(C)N=C(N2CCCC2)N1` [Compound 17]: -12%, -8%, -8% and -14%.
`CNC1=NC2(CCCCC2)N=C(N(C)C)N1` (as salt: HCl) [Compound 22]: the melting point is above 260 °C.
In the case of `CN(C)C1=NC2(CCC(OCc3ccccc3)CC2)N=C(N)N1` (stereo not drawn) [Compound 27], the change in vivo at 20 mg/kg in data set [1] (setting [2]) is -14%; in data set [1] (setting [3]) it was -9%. The change in vivo at 200 mg/kg in data set [1] (setting [2]) was -12%; in data set [1] (setting [3]), -13%.
In turn, `CN(C)C1=NC2(CCC(O)CC2)N=C(N)N1` (stereo not drawn) (as salt: HCl) [Compound 28] gave a melting point above 250 °C.
The compound `CCNC1=NC(C)(C)N=C(N(C)C)N1` (as salt: fumarate) [Compound 14] registered a melting point of 172 to 174 °C.
For `CN(C)C1=NC(C)(C)N=C(N(C)C)N1` (as salt: HCl) [Compound 15], the melting point is 250 to 252 °C.
Same read-out and setting: with `CN(C)C1=NC(COc2ccccc2)N=C(N)N1` (stereo not drawn) (as salt: toluenesulphonate) [Compound 41] the figure was 194 to 196 °C; with `C=CCNC1=NC(C)N=C(N(C)C)N1` (stereo not drawn) (as salt: HCl) [Compound 26], 91 to 92 °C.
Same read-out and setting: then `CC(CCC(=O)O)[C@H]1CCC2C3C(C[C@H](O)[C@@]21C)[C@@]1(C)CCC2(CC1C[C@H]3O)N=C(N)NC(N(C)C)=N2` (stereo partly drawn) (as salt: HCl) [Compound 25], with above 260 °C; and `CC(C)CCCC(C)[C@H]1CCC2C3CCC4CC5(CC[C@]4(C)C3CC[C@@]21C)N=C(N)NC(N(C)C)=N5` (stereo partly drawn) (as salt: HCl) [Compound 19], with above 260 °C.
Consider `CC1N=C(N(C)C)NC(N2CCCC2)=N1` (stereo not drawn) [Compound 21], for which the change in vivo at 20 mg/kg was -7% in data set [1] (setting [2]) and -2% in data set [1] (setting [3]). In addition, the values for the change in vivo at 200 mg/kg in data set [1] (setting [2]) and in data set [1] (setting [3]) were -21% and -24%, respectively.
Take `CCC1(CC)N=C(N)NC(N(C)C)=N1` (as salt: salt) [Compound 30]: the melting point was 140 to 144 °C.
For `CN1CCC2(CC1)N=C(N)NC(N(C)C)=N2` (as salt: HCl) [Compound 39], the melting point was above 260 °C.
In the case of `CN(C)C1=NC(C)(C)N=C(N)N1` [Compound 3], in data set [1] (setting [2]), the change in vivo at 20 mg/kg was -10% and the change in vivo at 200 mg/kg is -18%. In addition, in data set [1] (setting [3]), the change in vivo at 20 mg/kg is -8% and the change in vivo at 200 mg/kg was -22%.
`CCC1N=C(N)NC(N(C)C)=N1` (stereo not drawn) (as salt: HCl) [Compound 1, 2-amino-3,6-dihydro-4-dimethylamino-6-ethyl-1,3,5-triazine hydrochloride] returned a melting point of 218 to 220 °C.
Consider `CNC1=NC2(CCCCC2)N=C(N(C)C)N1` [Compound 22], for which the change in vivo at 20 mg/kg in data set [1] (setting [2]) was -23%; in data set [1] (setting [3]), -16%. For the same compound, the change in vivo at 200 mg/kg in data set [1] (setting [2]) is -13%; in data set [1] (setting [3]) it was 0%.
Regarding `CN(C)C1=NC2(CCOCC2)N=C(N)N1` (as salt: HCl) [Compound 38], the melting point was above 260 °C.
In the case of `CN(C)C1=NC2(CCCCC2)N=C(N)N1` [Compound 4], in data set [1] (setting [2]), the change in vivo at 20 mg/kg was 0% and the change in vivo at 200 mg/kg is -20%. For the same compound, in data set [1] (setting [3]), the change in vivo at 20 mg/kg is -1% and the change in vivo at 200 mg/kg is -10%.
The compound `CN(C)C1=NC(c2ccc(O)cc2)N=C(N)N1` (stereo not drawn) (as salt: HCl) [Compound 12] returned a melting point of 251 to 253 °C.
`CN(C)C1=NC2(CCC(O)CC2)N=C(N)N1` (stereo not drawn) [Compound 28]: in data set [1] (setting [2]), the change in vivo at 20 mg/kg is -4% and the change in vivo at 200 mg/kg is -4%. Further, in data set [1] (setting [3]), the change in vivo at 20 mg/kg was -1% and the change in vivo at 200 mg/kg was -13%.
Consider `CC(C)C1N=C(N)NC(N(C)C)=N1` (stereo not drawn) [Compound 44], for which the change in vivo at 20 mg/kg was -7% in data set [1] (setting [2]) and -6% in data set [1] (setting [3]). The change in vivo at 200 mg/kg in data set [1] (setting [2]) was -22%; in data set [1] (setting [3]) it was -25%.
As for `CN(C)C1=NC2(CCCC2)N=C(N)N1` (as salt: HCl) [Compound 31], the melting point fell in the range of 207 to 209 °C.
The same measure, in the same setting: with `COc1ccc(C2N=C(N)NC(N(C)C)=N2)cc1` (stereo not drawn) (as salt: HCl) [Compound 11] the figure was 221 to 223 °C; with `NC1=NC2(CCCCC2)N=C(NCCc2ccccc2)N1` (as salt: salt) [Compound 20], 170 to 180 °C.
The compound `CN(C)C1=NC(C2CC=CCC2)N=C(N)N1` (stereo not drawn) (as salt: toluenesulphonate) [Compound 45] yielded a melting point of 217 to 219 °C.
Consider `CCCC1N=C(N)NC(N(C)C)=N1` (stereo not drawn) [Compound 32], for which, in data set [1] (setting [2]), the change in vivo at 20 mg/kg came to 2% and the change in vivo at 200 mg/kg is -22%. Also, in data set [1] (setting [3]), the change in vivo at 20 mg/kg was found to be 0% and the change in vivo at 200 mg/kg was -18%.
With `CN(C)C1=NC(C)(C)N=C(N(C)C)N1` [Compound 15], in data set [1] (setting [2]), the change in vivo at 20 mg/kg was -8% and the change in vivo at 200 mg/kg was -4%. Moreover, in data set [1] (setting [3]), the change in vivo at 20 mg/kg is -9% and the change in vivo at 200 mg/kg is -5%.
For `CC(C)CCCC(C)[C@H]1CCC2C3CCC4CC5(CC[C@]4(C)C3CC[C@@]21C)N=C(N)NC(N(C)C)=N5` (stereo partly drawn) [Compound 19], in that order: -10%, -4%, -6% and -14%.
